The record followed here is paper PMC12616682, “Identification of a Highly Cooperative PROTAC Degrader Targeting GTP-Loaded KRAS(On) Alleles” (Journal of the American Chemical Society, 2025).

Read-outs that look alike come from different tables or passages of the source.

The target of experiment [1] is T1, KRAS^G12R in Cal-62 cells (Homo sapiens, UniProt P01116, G12R).
T1 construct: Potent degradation of endogenous KRAS^G12R was achieved by ACBI4 in the Cal-62 cell line; host or cells: Cal-62
Kind of experiment: Endogenous KRAS degradation by Western blot in Cal-62 cells. In kind it is cell-based. As to conditions: Cal-62 (G12R).

In the next experiment the target is T2, KRAS^G12R in KP-2 cells (Homo sapiens, UniProt P01116, G12R).
T2 construct: host or cells: KP-2
T2 sequence (P01116 1-188 isoform P01116-2 G12R): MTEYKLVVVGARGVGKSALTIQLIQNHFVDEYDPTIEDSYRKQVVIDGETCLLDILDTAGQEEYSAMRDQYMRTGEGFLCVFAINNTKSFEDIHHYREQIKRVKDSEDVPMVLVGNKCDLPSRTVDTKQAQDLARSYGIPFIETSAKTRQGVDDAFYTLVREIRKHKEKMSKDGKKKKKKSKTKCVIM
In words: Endogenous KRAS degradation by Western blot in KP-2 cells. It counts as cell-based. As to conditions: KP-2 (G12R). Background: A western blot detects proteins with antibodies after separation by electrophoresis.

The next experiment relates to Calu-6 cells. Kind of experiment: CellTiter-Glo anti-proliferation, Calu-6. In kind it is cell-based, human. As to conditions: Calu-6 (Q61K). A general note: ATP-based viability assays read luminescence as a measure of living cells.

T1 sequence (P01116 1-188 isoform P01116-2 G12R): as above

As a reminder, the Dmax is the largest share of the target that was removed. For orientation: DC50 means the concentration giving 50% degradation. As for `CC(C)C(C(=O)N1CC(O)CC1C(=O)NCc1ccc2cnn(C)c2c1)n1nnc2c1CCC(CCCN1CCCN(c3nccc(-c4noc(C5(C)CCCc6sc(N)c(C#N)c65)n4)n3)C(C)C1)C2` (stereo not drawn) [ACBI4], the Dmax in experiment [1] (4 h, read-out: DMax 4h) came to 88%; in experiment [1] (18 h, read-out: DMax 18h) it was 93%; on KRAS^G12R in KP-2 cells (4 h, read-out: DMax 4h), 91%; on KRAS^G12R in KP-2 cells (18 h, read-out: DMax 18h), 82%. Besides, the DC50 in experiment [1] (4 h, read-out: Dc50 4h) came out at 382 nM; in experiment [1] (18 h, read-out: Dc50 18h), 162 nM; on KRAS^G12R in KP-2 cells (4 h, read-out: Dc50 4h), 316 nM; at KRAS^G12R in KP-2 cells (18 h, read-out: Dc50 18h), 151 nM. Further, in the experiment on Calu-6 cells, the “CTG 72h Ic50” value was “unstable”.
